Here are results for 57 compounds from patent publication US9718760B2, “Plasminogen activator inhibitor-1 inhibitors and methods of use thereof” (THE REGENTS OF THE UNIVERSITY OF MICHIGAN, priority 2012, dated 2017).

Molecules are shown by their SMILES. Where “and” joins values, the source holds several entries; their conditions need not be identical. Identical values can stand only once.

The target of test [1] is T1, recombinant active human PAI-1 (Homo sapiens (Human), UniProt P05121). Put plainly: Fluorometric PAI-1/uPA IC50 plate assay at pH 7.8. It counts as biochemical. The following applies: physiologic buffer. The method, then:
To determine the efficacy of various synthesized compounds as PAI-1 inhibitors at pH 7.8, additional fluorometric plate assays were carried out to measure the half maximal inhibitory concentration (IC50) of these compounds on recombinant active human PAI-1 in vitro.
PAI-1 inhibitor compounds were dissolved in DMSO to a final concentration of (10-50 mM), depending upon solubility. […] Fluorescence, as a measure of the rate of AMC release by uPA, was read at the following wavelengths; excitation 370 nm, emission 440 nm. Controls included PAI-1 and uPA in the absence of compound and uPA alone. Percent PAI-1 inhibition was calculated using the following formula: [(uPA alone-uPA/PAI-1+ compound)/(uPA alone-PAI-1/uPA)]*100%. The IC50 was calculated using Graphit (IC50 0-100%).

The target of test [2] is T1, recombinant active human PAI-1. Put plainly: Fluorometric PAI-1/uPA IC50 plate assay at pH 7.4. It counts as biochemical. The method, then: To determine the efficacy of various synthesized compounds as PAI-1 inhibitors, a fluorometric plate assay was carried out to measure the half maximal inhibitory concentration (IC50) of these compounds on recombinant active human PAI-1 in vitro. An IC50 is a measure of the effectiveness of a compound in inhibiting biological or biochemical function. Stated another way, IC50 represents the concentration of a drug that is required for 50% inhibition in vitro.
PAI-1 inhibitor compounds were dissolved in DMSO to a final concentration of (10-50 mM), depending upon solubility. Compounds were then diluted in physiologic buffer (40 mM HEPES, 100 mM NaCl, 0.05% Tween-20, pH7.4) containing 10% DMSO and a dilution series (from 0 to 1000 uM depending on solubility) was prepared. 80 μL of compound was added per well to a 96-well black, opaque microplate in duplicate. 10 μL of 20 nM Recombinant active human PAI-1 (Molecular Innovations) in physiologic buffer (40 mM HEPES, 100 mM NaCl, 0.05% Tween-20, 10% DMSO, pH 7.4), or […] physiologic buffer with 10% human plasma, was added and the mixture was agitated for 15 minutes at room temperature. 10 μL of 25 nM uPA (Rheotromb®) was added to each reaction well and the plate was agitated for an additional 30 minutes at room temperature. Tripeptide aminomethylcoumarin Gly-Gly-Arg-AMC (Calbiochem) fluorogenic substrate (100 μL of 100 μM) was then added and residual uPA activity was determined based upon cleavage of this substrate. The rate of AMC release by uPA (fluorescence) was measured at an excitation wavelength of 370 nm and an emission wavelength of 440 nm. Controls included PAI-1 and uPA in the absence of compound and uPA alone. Percent PAI-1 inhibition was calculated using the following formula: [(uPA alone-uPA/PAI-1+ compound)/(uPA alone-PAI-1/uPA)]*100%. The IC50 was calculated using Graphit (IC50 0-100%).

Where [3] appears, read: physiologic buffer (40 mM HEPES, 100 mM NaCl, 0.05% Tween-20, 10% DMSO), read-out: PAI-1/uPA IC50 in buffer.
The mark [4] stands for this setting: physiologic buffer with 1.5% BSA (15 mg/mL), read-out: PAI-1/uPA IC50 in 1.5% BSA buffer.
[5] abbreviates: physiologic buffer with 10% human plasma, read-out: PAI-1/uPA IC50 in 10% plasma buffer.

T1 sequence (P05121 24-402): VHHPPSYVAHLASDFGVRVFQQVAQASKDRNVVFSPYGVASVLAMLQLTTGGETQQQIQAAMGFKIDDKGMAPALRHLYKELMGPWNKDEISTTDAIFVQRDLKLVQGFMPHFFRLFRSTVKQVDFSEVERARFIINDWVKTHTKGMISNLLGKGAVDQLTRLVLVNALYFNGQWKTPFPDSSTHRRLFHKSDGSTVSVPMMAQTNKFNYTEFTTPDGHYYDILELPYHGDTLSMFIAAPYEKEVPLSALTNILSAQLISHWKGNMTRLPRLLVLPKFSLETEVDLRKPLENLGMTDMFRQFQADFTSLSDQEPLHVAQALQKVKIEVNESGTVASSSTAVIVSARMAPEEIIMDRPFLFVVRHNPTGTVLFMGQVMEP

With `CCCCCc1nc(Cc2ccc(O)c(O)c2)n(C(C)(C)C)n1` [C220], in test [1], the IC50 is 116 µM.
In the case of `CCCCCCCN(S(=O)(=O)c1ccc(O)c(O)c1)S(=O)(=O)c1ccc(O)c(O)c1` [C182], the IC50 in test [1] turned out to be 0.033 µM.
Still for that read-out and setting: next, `NC(=O)[C@H](Cc1ccccc1)NS(=O)(=O)c1ccc(O)c(O)c1` [C270]: 29.5 µM; `CC(C)(C)n1nc(C2CC2)nc1Cc1ccc(O)c(O)c1` [C221]: 1610 µM; `CC(C)(C)n1nc(-c2ccccc2)nc1-c1ccc(O)c(O)c1` [C201, 4-(1-(tert-butyl)-3-phenyl-1H-1,2,4-triazol-5-yl)benzene-1,2-diol]: 181 µM.
On the same count and under the same terms, next, `O=C(O)[C@@H](NS(=O)(=O)c1ccc(O)c(O)c1)c1ccccc1` [C273]: 55.6 µM; `O=S(=O)(NCCc1ccccc1)c1ccc(O)c(O)c1` [C233]: 74.8 µM.
Still for that read-out and setting: as for `CCCCCCc1ccc(N(S(=O)(=O)c2ccc(O)c(O)c2)S(=O)(=O)c2ccc(O)c(O)c2)cc1` [C188], the figure is 0.12 µM; as for `CCCCCCCCCCN(CCN(CCCCCCCCCC)S(=O)(=O)c1ccc(O)c(O)c1)S(=O)(=O)c1ccc(O)c(O)c1` [C168], 1.98 µM; as for `CCCCCCc1ccc(N(S(=O)(=O)c2ccc(CCC)cc2)S(=O)(=O)c2ccc(O)c(O)c2)cc1` [C189], 2.29 µM.
In the case of `CCCCCCCCN(S(=O)(=O)c1ccc(CCCCC)cc1)S(=O)(=O)c1ccc(O)c(O)c1` [C191], in test [1], the IC50 worked out at 1.28 µM.
The same measure, in the same setting: as for `CCCCN(C)C(=O)CSc1ccc(O)c(O)c1` [C200], the figure is 58.4 µM.
Same read-out and setting: next, `CC(C)(C)n1nc(-c2ccccc2)nc1Cc1ccc(O)c(O)c1` [C208]: 77.2 µM.
The same measure, in the same setting: as for `O=C1S/C(=C\c2ccc(O)c(O)c2)C(=O)N1Cc1ccccc1` [C199], the figure is 5.36 µM; as for `CCCCCCCCN(Cc1cc(Cl)c(O)c(Cl)c1)S(=O)(=O)c1ccc(O)c(O)c1` [C172], 1.98 µM.
As for `CCCCCCCCCN(CCN(CCCCCCCCC)S(=O)(=O)c1ccc(O)c(O)c1)S(=O)(=O)c1ccc(O)c(O)c1` [C185], the IC50 in test [1] stood at 0.42 µM.
Still for that read-out and setting: as for `CCCCCCCCN(CCCCCC)S(=O)(=O)c1ccc(O)c(O)c1` [C180], the figure is 1.34 µM.
On the same count and under the same terms, next, `O=C(O)CCCCNS(=O)(=O)c1ccc(O)c(O)c1` [C249]: 663 µM; `CCCCCCCCN(Cc1cccc(Cl)c1)S(=O)(=O)c1ccc(O)c(O)c1` [C177]: 5.11 µM.
On the same count and under the same terms, as for `CC(C)(C)n1nc(-c2ccc(O)cc2)nc1Cc1ccc(O)c(O)c1` [C222], the figure is 236 µM; as for `CCCCCCCCN(CCN(CCCCCCCC)S(=O)(=O)c1ccc(O)c(O)c1)S(=O)(=O)c1ccc(O)c(O)c1` [C176], 0.62 µM.
For the compound `O=C(Nc1ccccc1)[C@@H]1CCCN1S(=O)(=O)c1ccc(O)c(O)c1` [C193], the IC50 in test [1] turned out to be 552 µM.
The same measure, in the same setting: as for `O=C(O)CCCCCNS(=O)(=O)c1ccc(O)c(O)c1` [C271], the figure is 1.82 µM.
On the same count and under the same terms, next, `CCCCCCN(CCCCCC)S(=O)(=O)c1ccc(O)c(O)c1` [C171]: 1.67 µM; `CCCCCCCCN(S(=O)(=O)c1ccc(O)cc1)S(=O)(=O)c1ccc(O)c(O)c1` [C224]: 4.34 µM.
Turning to `Cc1cc(C(=O)NCc2ccc(Cl)c(C(F)(F)F)c2)no1` [C286], the IC50 in test [2] (setting [3]) amounted to 580 µM.
Take `O=C(OCC(CNS(=O)(=O)c1cccc(C(F)(F)F)c1)OC(=O)c1ccc(O)c(O)c1)c1ccc(O)c(O)c1` (centres unmarked) [C204]: in test [1], the IC50 amounted to 0.035 µM.
Regarding `O=C1S/C(=C\c2ccc(O)c(O)c2)C(=O)N1Cc1ccc(Br)cc1` [C203], the IC50 in test [1] amounted to 17.1 µM.
For the compound `CCOC(=O)C(=O)NCc1cccc(C(F)(F)F)c1` [C267], the IC50 in test [2] (setting [3]) was determined as 3790 µM.
Turning to `O=C(O)[C@@H](Cc1ccccc1)NS(=O)(=O)c1ccc(O)c(O)c1` [C275], in test [1], the IC50 worked out at 30.5 µM.
Same read-out and setting: as for `O=C1S/C(=C\c2ccc(O)c(O)c2)C(=O)N1Cc1cccc(-c2ccc(OC(F)(F)F)cc2)c1` [C207, (Z)-5-(3,4-dihydroxybenzylidene)-3-((4′-(trifluoromethoxy)-[1,1′-biphenyl]-3-yl)methyl)thiazolidine-2,4-dione], the figure is 16.8 µM.
On the same count and under the same terms, next, `CCCCCCCCCN(S(=O)(=O)c1ccc(O)c(O)c1)S(=O)(=O)c1ccc(O)c(O)c1` [C183]: 0.18 µM.
`NNC(=O)C(=O)NCc1ccc(F)cc1` [C248]: the IC50 is 1190 µM and 1310 µM in test [2] (setting [3]); 652 µM and 646 µM in test [2] (setting [4]); 478 µM in test [2] (setting [5]).
For `COc1ccc(CNC(=O)C(=O)NN)c(OC)c1` [C281], the IC50 in test [2] (setting [3]) turned out to be 2290 µM.
Consider `O=C(CCc1ccc(O)c(O)c1)NCc1ccc(C(F)(F)F)cc1` [C345], for which the IC50 in test [2] (setting [3]) came to 1470 µM; in test [2] (setting [4]), 673 µM; in test [2] (setting [5]) it was 539 µM.
In the case of `O=S(=O)(c1ccc(O)c(O)c1)N1CCc2ccccc21` [C205], the IC50 in test [1] came to 5.05 µM.
On the same count and under the same terms, next, `CCCCCCCCN(CC(O)c1ccccc1)S(=O)(=O)c1ccc(O)c(O)c1` (centres unmarked) [C175]: 6.74 µM; `CCCCCCCCCCCCc1ccc(N(S(=O)(=O)c2ccc(O)c(O)c2)S(=O)(=O)c2ccc(O)c(O)c2)cc1` [C195]: 0.92 µM.
Consider `NNC(=O)C(=O)NCc1cc(C(F)(F)F)cc(C(F)(F)F)c1` [C339], for which the IC50 in test [2] (setting [3]) was 282 µM; in test [2] (setting [4]), 247 µM; in test [2] (setting [5]) it was 303 µM.
`O=S(=O)(NCCc1ccc(O)c(O)c1)c1ccccc1` [C210]: in test [1], the IC50 was determined as 190 µM.
For `N#Cc1ccc(CNC(=O)C(=O)NN)cc1` [C336], the IC50 in test [2] (setting [3]) turned out to be 5470 µM; in test [2] (setting [4]) it was 892 µM; in test [2] (setting [5]), 851 µM.
With `CCCCCc1nc(Cc2ccc(O)c(O)c2)n(C(C)(C)C)n1` [C223], the IC50 in test [1] stood at 125 µM.
Still for that read-out and setting: next, `CCCCCCCCN(CCCCCCCC)S(=O)(=O)c1ccc(O)c(O)c1` [C170]: 5.49 µM.
As for `O=S(=O)(NCCCc1ccccc1)c1ccc(O)c(O)c1` [C232], the IC50 in test [1] worked out at 13.3 µM.
For the compound `O=S(=O)(c1ccc(O)c(O)c1)N1CCC[C@H]1CCc1ccccc1` [C186], the IC50 in test [1] is 6.98 µM.
`NNC(=O)C(=O)NCc1cccc(F)c1` [C264]: the IC50 in test [2] (setting [3]) was found to be 2120 µM; in test [2] (setting [4]), 1180 µM; in test [2] (setting [5]), 1250 µM.
Consider `O=C(OCCOC(=O)c1ccc(O)c(O)c1)c1cc(O)cc(O)c1` [C236], for which, in test [1], the IC50 was 174 µM.
For the compound `O=C(NO)NCc1ccc(Cl)c(C(F)(F)F)c1` [C284, 1-(4-chloro-3-(trifluoromethyl)benzyl)-3-hydroxyurea], the IC50 in test [2] (setting [3]) was found to be 2480 µM.
For `CCCCCCCCN(Cc1cccc(C(F)(F)F)c1)S(=O)(=O)c1ccc(O)c(O)c1` [C179], in test [1], the IC50 turned out to be 2.4 µM.
As to `NNC(=O)C(=O)NCc1cc(F)c(F)c(F)c1` [C304], the IC50 in test [2] (setting [3]) was 162 µM; in test [2] (setting [4]), 90 µM; in test [2] (setting [5]), 74 µM.
In the case of `O=C(NCc1ccc(Cl)c(C(F)(F)F)c1)C(=O)NNS(=O)(=O)c1ccccc1` [C334], in test [2] (setting [3]), the IC50 is 189 µM.
Same read-out and setting: next, `CCOC(=O)C(=O)NCc1cccc(Cl)c1` [C265]: 4020 µM.
For `NNC(=O)C(=O)NCc1ccc(C(F)(F)F)cc1` [C296], the IC50 was 112 µM in test [2] (setting [3]), 69 µM in test [2] (setting [4]) and 64 µM in test [2] (setting [5]).
Take `O=C(O)C(=O)NCc1ccc(Cl)c(C(F)(F)F)c1` [C309, 2-((4-chloro-3-(trifluoromethyl)benzyl)amino)-2-oxoacetic acid]: the IC50 in test [2] (setting [3]) amounted to 1200 µM.
Regarding `Cc1ccc(CNC(=O)C(=O)NN)cc1F` [C305], the results for the IC50 in test [2] (setting [3]), in test [2] (setting [4]) and in test [2] (setting [5]) were 224 µM, 81 µM and 62 µM, respectively.
In the case of `O=C(NCc1ccc(Cl)c(C(F)(F)F)c1)c1n[nH]c(=O)o1` [C285, N-(4-chloro-3-(trifluoromethyl)benzyl)-5-oxo-4,5-dihydro-1,3,4-oxadiazole-2-carboxamide], the IC50 in test [2] (setting [3]) is 422 µM and 388 µM; in test [2] (setting [4]), 265 µM; in test [2] (setting [5]), 306 µM.
On to `NNC(=O)C(=O)NCc1ccc(Cl)c(C(F)(F)F)c1` [C251], for which the IC50 in test [2] (setting [3]) is 68.6 µM and 76 µM; in test [2] (setting [4]), 110 µM and 123 µM; in test [2] (setting [5]), 108 µM.
